45 molecules from patent US8183236B2, “Compounds with HIV-1 integrase inhibitory activity and use thereof as anti-HIV/AIDS therapeutics” (University of Southern California, priority 2007, dated 2012) can be followed below.

For assay [1], the target named is T1, HIV-1 integrase (wild-type IN) (Human immunodeficiency virus type 1 group M subtype B, UniProt P12497). As to the kind of experiment: HIV-1 integrase strand transfer assay (32P-labeled 21-mer, gel). Format: biochemical. An outline of the steps: (§1)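 Wild-type IN at 200 nM preincubated with inhibitor 30 min at 30 °C in MnCl2 (7.5 mM), pH 7.2 MOPS buffer with 10% DMSO, then 20 nM 5′-32P-labeled 21-mer duplex added for 1 h. 19-mer and strand-transfer products resolved on denaturing 20% gels by phosphorimaging; IC50 from log concentration versus % inhibition.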

The target in assay [2] is T1, HIV-1 integrase (wild-type IN). Kind of assay: HIV-1 integrase 3′-processing assay (32P-labeled 21-mer, gel). Type of assay: biochemical. A digest of the protocol: as §1
[3] abbreviates: wild-type IN 200 nM, 7.5 mM MnCl2, read-out: Inhibition of IN Catalytic Activities IC50 (μM) Strand Transfer.
The mark [4] stands for this setting: wild-type IN 200 nM, 7.5 mM MnCl2, read-out: Inhibition of IN Catalytic Activities IC50 (μM) 3′-processing.
Where [5] appears, read: unit inferred, read-out: HIV-1 IN Inhibitory Activities Strand transfer.
[6] abbreviates: unit inferred, read-out: HIV-1 IN Inhibitory Activities 3′-processing.

With `Cc1ccc(S(=O)(=O)N(CC(=O)Nc2ccccc2C(=O)O)c2cccc(Cl)c2)cc1` [OT24], the IC50 in assay [1] (setting [3]) was 71 ± 23 µM; in assay [2] (setting [4]), 98 ± 5 µM.

Regarding `CCOc1ccc(N(CC(=O)Nc2ccccc2C(=O)O)S(=O)(=O)c2ccc(Cl)cc2)cc1` [OT27], the IC50 in assay [1] (setting [3]) was determined as 47 ± 22 µM; in assay [2] (setting [4]), 69 ± 15 µM.

Consider `CCCc1cc2c(-c3ccccc3)cc(=O)oc2cc1OCc1ccc(C(=O)O)o1` [OT32], for which the IC50 in assay [1] (setting [3]) was determined as 57 ± 22 µM; in assay [2] (setting [4]), 72 ± 8 µM.

In the case of `N#Cc1c(-c2ccc(F)cc2)cc(C2CC2)nc1SCCN1C(=O)c2ccccc2C1=O` [OT33], the IC50 is 95 ± 11 µM in assay [1] (setting [3]) and over 100 µM in assay [2] (setting [4]).

With `COCCN1C(=O)/C(=C\c2ccc(OCc3ccc(C(=O)O)cc3)c(OC)c2)SC1=S` [OT35], the IC50 came to 38 ± 16 µM in assay [1] (setting [3]) and 41 ± 11 µM in assay [2] (setting [4]).

On to `COc1ccc(/C=C2/SC(=S)N(CC(=O)O)C2=O)cc1OCc1ccccc1F` [OT37], for which the values for the IC50 in assay [1] (setting [3]) and in assay [2] (setting [4]) were 79 ± 8 µM and over 100 µM, respectively.

Regarding `O=C(CSc1nc2scc(-c3ccco3)c2c(=O)n1-c1ccccc1)NCc1ccco1` [OT51], the IC50 came to 14 ± 4 µM in assay [1] (setting [3]) and 36 ± 29 µM in assay [2] (setting [4]).

As to `O=C(Nc1cc(C(=O)Nc2ccccc2C(=O)O)cc(C(=O)Nc2ccccc2C(=O)O)c1)c1ccccc1` [ROM1], the IC50 in assay [1] (setting [5]) stood at 20 µM; in assay [2] (setting [6]) it was 78 µM.

Regarding `CCn1cc(C(=O)O)c(=O)c2cc(F)c(NNC(=O)C3CCCCC3)cc21` [ROM3A1], the IC50 in assay [1] (setting [3]) and in assay [2] (setting [4]) was over 100 µM each time.

Regarding `CCn1cc(C(=O)NN)c(=O)c2cc(F)c(N3CCCCCC3)cc21` [ROM3A2], the IC50 is 98 µM in assay [1] (setting [3]) and 94 µM in assay [2] (setting [4]).

For the molecule `CCn1cc(C(=O)O)c(=O)c2cc(F)c(N3CCN(C(=O)c4cccc(C)c4)CC3)cc21` [ROM3A3], the IC50 in assay [1] (setting [3]) and in assay [2] (setting [4]) was over 100 µM each time.

Take `CCn1cc(C(=O)O)c(=O)c2cnc(N3CCN(C(=S)NC(=O)c4ccc(F)c(F)c4)CC3)nc21` [ROM3A4]: the IC50 in assay [1] (setting [3]) amounted to 59 µM; in assay [2] (setting [4]) it was 64 µM.

With `NC(=S)N1CCN(c2c(F)c(N)c3c(=O)c(C(=O)O)cn(C4CC4)c3c2F)CC1` [ROM3A5], the IC50 in assay [1] (setting [3]) and in assay [2] (setting [4]) was over 100 µM each time.

For the molecule `CCn1cc(C(=O)O)c(=O)c2cc(F)c(N3CCN(C(=S)S)CC3)cc21` [ROM3A6], the IC50 in assay [1] (setting [3]) and in assay [2] (setting [4]) was over 100 µM in each case.

On to `CCn1cc(C(=O)O)c(=O)c2c(N)c(F)c(N3CCNCC3)c(F)c21` [ROM3A7], for which the figures for the IC50 in assay [1] (setting [3]) and in assay [2] (setting [4]) were 95 µM and over 100 µM, respectively.

For the molecule `CCn1cc(C(=O)O)c(=O)c2cc(F)c(N3CCN(C(=S)NC(=O)C45CC6CC(CC(C6)C4)C5)CC3)cc21` [ROM3A8], the IC50 in assay [1] (setting [3]) was 74 µM; in assay [2] (setting [4]) it was 78 µM.

Consider `O=C(NC(=S)N1CCN(c2cc3c(cc2F)c(=O)c(C(=O)O)cn3C2CC2)CC1)c1ccc(Cl)cc1` [ROM3A9], for which the IC50 in assay [1] (setting [3]) was 53 µM; in assay [2] (setting [4]), 80 µM.

In the case of `O=C(NC1CC1)c1c[nH]c2ccc(S(=O)(=O)Nc3cccc(C(F)(F)F)c3)cc2c1=O` [ROM3A10], the results for the IC50 in assay [1] (setting [3]) and in assay [2] (setting [4]) were 92 µM and 93 µM, respectively.

In the case of `O=C(NCc1cccs1)c1c[nH]c2ccc(S(=O)(=O)Nc3ccc4c(c3)OCCO4)cc2c1=O` [ROM3A11], the IC50 was 90 µM in assay [1] (setting [3]) and 91 µM in assay [2] (setting [4]).

As to `O=C(O)c1c[nH]c2c(F)c(F)c(F)c(NCc3ccccc3)c2c1=O` [ROM3], the IC50 was 12 µM in assay [1] (setting [3]) and over 12 µM in assay [2] (setting [4]).

With `Oc1cccc2ccc(/C=N/N=C/c3ccc4cccc(O)c4n3)nc12` [RT3], the IC50 in assay [1] (setting [3]) is 69 µM; in assay [2] (setting [4]) it was 45 µM.

`O=C(O)CCN1C(=O)/C(=C\c2ccc(-c3cccc(Cl)c3)o2)SC1=S` [RT23]: the figures for the IC50 in assay [1] (setting [3]) and in assay [2] (setting [4]) were 21 µM and over 100 µM, respectively.

In the case of `Oc1cccc2ccc(/C=C/c3ccc(-c4cccc(Cl)c4)o3)nc12` [RT29], the IC50 is 70 µM in assay [1] (setting [3]) and 30 µM in assay [2] (setting [4]).

`Cc1ccc2ccc(C(Nc3ccccn3)c3ccc(F)cc3)c(O)c2n1` (centres unmarked) [RT30]: the IC50 in assay [1] (setting [3]) and in assay [2] (setting [4]) was over 100 µM each time.

Take `Cc1cc([N+](=O)[O-])ccc1-c1ccc(/C=C/c2ccc3cccc(O)c3n2)o1` [RT31]: the IC50 in assay [1] (setting [3]) was over 100 µM; in assay [2] (setting [4]), 57 µM.

As for `CCOc1cc(/C=C2/C(=N)N3N=C(C(C)(F)F)SC3=NC2=O)ccc1OCc1ccc(F)cc1` [RT35], the IC50 in assay [1] (setting [3]) was found to be 19 µM; in assay [2] (setting [4]) it was 90 µM.

For `CC1=NN2C(=N)/C(=C/c3ccc(-c4ccccc4Cl)o3)C(=O)N=C2S1` [RT42], the IC50 in assay [1] (setting [3]) and in assay [2] (setting [4]) was over 100 µM throughout.

`O=C(N/N=C/c1ccc(-c2ccc(O)c(C(=O)O)c2)o1)c1cccnc1` [SA1]: the IC50 came out at 9 ± 5 µM in assay [1] (unit inferred, read-out: IN inhibition activity Strand transfer); 9 µM in assay [1] (setting [3]); 59 ± 1 µM in assay [2] (unit inferred, read-out: IN inhibition activity 3′-processing); 59 µM in assay [2] (setting [4]).

For `CCn1cc(C(=O)O)c(=O)c2cc(F)c(N3CCN(S(=O)(=O)c4ccc(NC(C)=O)cc4)CC3)cc21` [SR9], the IC50 in assay [1] (setting [3]) and in assay [2] (setting [4]) was over 100 µM in each case.

For the molecule `O=c1cc(-c2ccccc2)c2ccc(O)c(O)c2o1` [SR44], the IC50 in assay [1] (setting [3]) came to 16 µM; in assay [2] (setting [4]), 32 µM.

On to `CCn1c(=O)c(C(=O)Nc2cc(Cl)ccc2OC)c(O)c2ccccc21` [XR5], for which the IC50 worked out at 19 µM in assay [1] (setting [3]) and 74 µM in assay [2] (setting [4]).

`CCCCCn1c(=O)c(C(=O)Nc2cc([N+](=O)[O-])ccc2O)c(O)c2ccccc21` [XR6]: the IC50 in assay [1] (setting [3]) and in assay [2] (setting [4]) was 9 µM in each case.

In the case of `C=CCn1c(=O)c(C(=O)Nc2ccccc2S(N)(=O)=O)c(O)c2ccccc21` [XR7], the values for the IC50 in assay [1] (setting [3]) and in assay [2] (setting [4]) were 45 µM and 83 µM, respectively.

With `Cn1c(=O)c(C(=O)Nc2ccccc2S(N)(=O)=O)c(O)c2ccccc21` [XR8], the IC50 in assay [1] (setting [3]) turned out to be 39 µM; in assay [2] (setting [4]), 50 µM.

Take `CCn1c(=O)c(C(=O)Nc2ccccc2O)c(O)c2ccccc21` [XR10]: the IC50 in assay [1] (setting [3]) is 32 µM; in assay [2] (setting [4]), 72 µM.

Regarding `Cn1c(=O)c(C(=O)Nc2ccccc2C(F)(F)F)c(O)c2ccccc21` [XR12], the IC50 stood at 28 µM in assay [1] (setting [3]) and 81 µM in assay [2] (setting [4]).

`CCCCCn1c(=O)c(C(=O)Nc2ccccc2S(N)(=O)=O)c(O)c2ccccc21` [XR13]: the IC50 in assay [1] (setting [3]) is 13 µM; in assay [2] (setting [4]) it was 11 µM.

As for `CCCCn1c(=O)c(C(=O)Nc2ccccc2S(N)(=O)=O)c(O)c2ccccc21` [XR14], the IC50 in assay [1] (setting [3]) was 17 µM; in assay [2] (setting [4]) it was 15 µM.

`Cc1cc2nc(-c3cc(NC(=O)c4ccc(F)cc4)ccc3O)oc2cc1C` [XR16]: the IC50 in assay [1] (setting [5]) and in assay [2] (setting [6]) was under 100 µM in each case.

Take `COc1ccc(C(=O)Nc2ccc(O)c(-c3nc4ccccc4o3)c2)cc1[N+](=O)[O-]` [XR17]: the IC50 in assay [1] (setting [5]) worked out at 7 µM; in assay [2] (setting [6]), 6 µM.

`COc1cc(C(=O)Nc2ccc(O)c(-c3nc4ccccc4o3)c2)cc(OC)c1OC` [XR18]: the IC50 in assay [1] (setting [5]) and in assay [2] (setting [6]) was under 100 µM each time.

Regarding `O=C(Nc1ccc(O)c(-c2nc3ccccc3o2)c1)c1ccccc1F` [XR19], the IC50 in assay [1] (setting [5]) and in assay [2] (setting [6]) was under 100 µM throughout.

As for `O=C(Nc1ccc(O)c(-c2nc3ccccc3o2)c1)c1cccc2ccccc12` [XR21], the IC50 in assay [1] (setting [5]) amounted to 6 µM; in assay [2] (setting [6]), 14 µM.

Take `COc1ccccc1C(=O)Nc1ccc(O)c(-c2nc3cc(C)ccc3o2)c1` [XR22]: the IC50 in assay [1] (setting [5]) and in assay [2] (setting [6]) was under 100 µM throughout.

In the case of `O=C(NNC(=O)c1c(O)c2ccccc2[nH]c1=O)c1ccccc1Cl` [XR44], the IC50 turned out to be 26 µM in assay [1] (setting [3]) and 28 µM in assay [2] (setting [4]).
